Measurements published in patent publication US20090275633A1, “Novel Tumour Suppressor” (ONCOMETHYLOME SCIENCES SA, priority 2006, published 2009).
“Also recorded” adds a separate entry of the source.

Columns and labels:
[1] = test system: colon cancer cell lines (RKO, Co115, HCT-116, SW48, LoVo); test: Apoptosis by flow cytometry (YO-PRO-1/propidium iodide); assay type: cell-based, human; set-up: apoptosis (propidium iodide): dose or concentration left out as unconfirmed; settings: for apoptosis (propidium iodide): HDAC2-deficient RKO cells, 24 h with SAHA
Procedure: (§1) FIG. 5. […] Experiments were performed in triplicate.
(§2) Human colorectal and endometrial cancer cell lines were obtained from the American Type Culture Collection. HDAC inhibition treatment was developed adding 0.25 μM trichostatin A, 10 mM sodium valproate or 10 mM sodium butyrate to the culture medium for 24 hours. We obtained DNA samples from 228 human primary malignancies corresponding to colon tumors of HPNCC patients (n=47) and sporadic MSI+colon (n=127), MSI-colon (n=40), gastric (n=38) and endometrial carcinomas (n=16), as well as normal colon tissue (n=6), at the time of clinically indicated surgical procedures. Normal lymphocytes from healthy donors (n=50) was also used. DNA was extracted using standard protocols.
(§3) The percentage of apoptotic cells was determined by flow cytomery using Vybrant® Apoptosis Assay Kit #4-YO-PRO®-1/propidium iodide (Molecular Probes/Invitrogen). To analyze the cell cycle profiles, we stained with propidium iodide and the percentage of cells in G2/M was determined by flow cytometry.

[2] = test system: histones H3 and H4 in colorectal cancer cell lines RKO, Co115, HCT-116, SW48 and LoVo; test: Histone H3 and H4 acetylation levels (western blot, HPCE) after treatment with HDAC inhibitors; assay type: cell-based, human; settings: 24 hours
Text: To address these issues we assessed the effects of three classical HDACis, the hydroxamic acid trichostatin A and the carboxylic acids butyrate and valproate, on five colorectal cancer cell lines: the HDAC2-mutant cell lines RKO and Co115, and the HDAC2-wild type cell lines HCT-116, SW48 and LoVo. We analyzed the acetylation levels at histones H3 and H4 using western blotting with antibodies raised against tetraacetylated peptides of histones H3 and […], and high-performance capillary electrophoresis (HPCE)^3. […] The HDAC2-deficient cells were resistant to trichostatin A action from a biochemical and also a cellular point of view.
as §2
We prepared histones in accordance with established protocols1. We obtained histones from cell lines and tumor samples in parallel with their matching controls under identical conditions. For cell lines, we isolated nuclei with RSB buffer (10 mM Tris 10 (pH 7.5), 10 mM NaCl and 3 mM MgCl2) containing I—Nonidet-P40 and protease inhibitors. We extracted nuclei with 0.25 M HCl and precipitated them with eight volumes of acetone. For tumors and their normal tissue counterparts, we homogenized samples with a Polytron homogenizer (Brinkman Instruments) in 0.25 M HCl and incubated them with gentle agitation for 4 h. We precipitated the resulting supernatant with eight volumes of acetone. We then fractionated individual histones by reverse-phase HPLC on a Jupiter C18 column. We made comparisons only between samples extracted with identical methodology.
For western blotting, we collected cells by centrifugation and washed cell pellets twice with phosphate-buffered saline buffer. For HDAC2 expression, nuclear extracts were fractionated on a 7.5% SDS-PAGE gel, transferred the fractions to a polyvinylidene difluoride membrane with […] (Immobilon PSQ, Millipore), blocked the membrane in 5% milk PBS-T (phosphate-buffered saline with 0.1% Tween-20) and immunoprobed it with antibodies to HDAC2 (1:1000) and HDAC1 (1:1000; both from Abcam). The acetylated forms of histones 3 and 4 were analyzed as previously described2. We extracted the histones directly from the cell pellets with 0.250 M HCl. We fractionated 10 μg of the acid-extracted proteins on a 10% SDS-PAGE gel. Transferred membranes were immunoprobed with antibodies to acetylated H4 (1:2,000, Upstate) and acetylated H3 (1:50,000, Upstate). We used horseradish peroxidase-conjugated antibody to rabbit IgG (Amersham) at 1:3,000 dilution in PBS-T as the secondary antibody and antibody to H4 (1:3,000; Upstate) as a loading control. For immunolocalization experiments, we grew cells on coverslips and stained them with antibodies against HDAC2 and HDAC1 (Abcam) as previously described. We obtained images with a Leica DMRD photomicroscope coupled to a Leica DC200 camera, processed them using Adobe Photoshop software and analyzed them using public National Institutes of Health Image software. Immunohistochemical staining of HDAC2 was performed using a polyclonal antibody (Abcam, Cambridge, UK) at a 1:1500 dilution. After antigen retrieval with citrate buffer, immunodetection was performed by the DAKO EnVision Visualization Method (DAKO, Glostrup, Denmark), with diaminobenzidine chromogen as the substrate
We quantified global histone H4 acetylation as previously described3. […]

[3] = test system: colon cancer cell lines (RKO, Co115, HCT-116, SW48, LoVo); test: Cell viability (MTT assay) of colon cancer cell lines; assay type: cell-based, human; settings: for inhibition of proliferation: all cancer cell lines independently of HDAC2 status
Procedure: Cells were treated for 48 h with different concentrations of TSA (0-1000 nM). Experiments were performed in triplicate.
as §1, §2
Cell viability was determined as previously described5. Aliquots of 1.5×10^4 cells were plated in 96-well microdilution plates. Following overnight cell adherence, experimental media containing the drugs or control media was added to appropriate wells. After 48 hours, the media was replaced by drug-free fresh media (100 μl/well) containing MTT (50 μg). After a 3 hour incubation at 37° C. in 5% CO2 atmosphere, the MTT was removed and MTT-formazan crystals were dissolved in DMSO (100 μl/well). Absorbance at 570 nm was determined on an automatized microtiter plate reader.

[4] = test system: colon cancer cell lines (RKO, Co115, HCT-116, SW48, LoVo); test: Cell cycle analysis (percentage of cells in G2/M, propidium iodide flow cytometry); assay type: cell-based, human; settings: for blockage of the cell cycle at G2/M: all cancer cell lines independently of HDAC2 status; for G2/M cell cycle arrest: TSA
Procedure: as §2, §3

[5] = test system: HCT116, RKO and Co115 tumor xenografts; test: Mouse xenograft model with PBS, TSA and BUT treatments; assay type: in vivo, athymic nude mice
Text: a, PBS, BUT and TSA treated female athymic nude mice 17 days after injection of RKO (left flank) and HCT116 (right flank) cells.
b, Tumors were excised and weighed. Tumor detail in cm and weight in mg for PBS-, BUT- and TSA-HCT116, RKO and C0115 cells.
c, Effect of the HDAC inhibitors TSA and sodium butyrate (But) on the in vivo growth of HCT116, RKO and C0115. Tumor size was monitored over time and size in mm3. Dark square: PBS treatment, Dark circle: TSA treatment, Dark triangle: BUT treatment.
Six-week-old female athymic nude mice nu/nu (Harlam Sprague-Dawley, Indianapolis, Ind.), housed under specific pathogen-free conditions (Institutional Animal Welfare Committee Agreement), were used for HCT116, RKO and Co115 tumor xenografts. For treatments, animals were randomly separated in three seven-specimens-groups, differentiated for PBS (Control), TSA (Trichostatin A) and BUT (Butyric acid) treatments. Both flanks of each animal were injected s.c. with 106 (HCT116) or 2×106 (RKO and CO115) cells in a total volume of 200 μL of PBS. For transfections assays both flanks of each animal were injected subcutaneously with 2×106 RKO (left) or RKO-HDAC2-transfected (right) cells in a total volume of 200 μL of PBS. Tumor development at the site of injection was evaluated daily. Animals were sacrificed at 21 days. The tumors were then excised and weighed.

[6] = test system: RKO-HDAC2-transfected cells; test: H4 acetylation by HPCE in RKO cells transfected with HDAC2; assay type: cell-based, human; settings: RKO cells transfected with wild-type HDAC2
Text: b, Quantification of H4 acetylation by HPCE.
(§4) We quantified global histone H4 acetylation as previously described3. We prepared individual histone fractions from cell nuclei and purified them by reverse-phase HPLC on a Jupiter C18 column (Phenomenex, Inc.) with an acetonitrile gradient (20-60%) in 0.3% trifluoroacetic acid, using a HPLC gradient system (Beckman-Coulter). We resolved non-, mono, di-, tri- and tetra-acetylated histone H4 derivatives by HPCE. We used an uncoated fused-silica capillary (Beckman-Coulter; 60.2 cm 75 μm, effective length 50 cm) in a capillary electrophoresis system (P/ACE MDQ, Beckman-Coulter) with 100 mM phosphate buffer (pH 2.0) 0.02% (w/v) HPM-cellulose as running buffer and operating voltages of 12 kV.
The HDAC2 expression vector pcDNA3-HDAC2 was constructed by cloning the cDNA corresponding to the gene HDAC2 in pcDNA vector (Invitrogen). […] C1ones expressing HDAC2 were selected in complete medium supplemented with 1 mg/mL G418. Stable clones were maintained in complete medium with 1 mg/mL G418. For colony formation experiments, stable G418-resistant colonies were fixed, stained with 2% methylene blue in 60% methanol, and the average number of colonies present in each well was determined.

[7] = test system: HDAC2-knocked down HCT116 cells; assay type: cell-based, human
Text: as §4

[8] = all colorectal cell lines irrespective of HDAC2 status, 10 mM sodium valproate or 10 mM sodium butyrate
[9] = all cancer cell lines independently of HDAC2 status
[10] = HDAC2-proficient cell lines, TSA
[11] = HDAC2-proficient cell lines, TSA, listed as TSA

**Q.** For `O=C(CCCCCCC(=O)Nc1ccccc1)NO` [SAHA, suberoylanilide hydroxamic acid], which “apoptosis (propidium iodide)” value [1] is on record?
**A.** Its value is “enhanced resistance”.

**Q.** And the “apoptosis (propidium iodide)” value ([1]; listed as suberoylanilide hydroxamic acid (SAHA))?
**A.** Its value is “unable to efficiently inhibit cell growth and induce apoptosis”.

**Q.** What does the source list for `CCCC(=O)[O-].[Na+]` [butyrate, sodium butyrate]?
**A.** hyperacetylation of histones H3 and H4 [2, 8]: induce hyperacetylation in all cells; also recorded: able to induce hyperacetylation; inhibition of proliferation [3]: significantly inhibited proliferation; induction of apoptosis [1, 9]: induced apoptosis; blockage of the cell cycle at G2/M [4]: able to induce blockage of the cell cycle at G2/M; tumor shrinkage ([5]; all cancer cell lines xenografted in nude mice (HCT-116, RKO, Co115), independently of HDAC2 status): induced tumor shrinkage

**Q.** How did the “hyperacetylation of histones H3 and H4” value ([2]; HDAC2-deficient RKO and Co115 cell lines, 0.25 μM trichostatin A) turn out when `CC(/C=C/C(=O)NO)=C\[C@@H](C)C(=O)c1ccc(N(C)C)cc1` [trichostatin A] was run?
**A.** The value was “unable to induce the hyperacetylation”.

**Q.** What about the “hyperacetylation of histones H3 and H4” value ([2]; HDAC2-deficient RKO and Co115 cell lines, 0.25 μM trichostatin A, listed as TSA) of the same molecule?
**A.** Its value is “does not induce histone hyperacetylation”.

**Q.** What about the “hyperacetylation of histones H3 and H4” value ([2]; HDAC2-wild type cells (HCT-116, SW48, LoVo), 0.25 μM trichostatin A) of the same molecule?
**A.** The value was “effective”.

**Q.** What about the “hyperacetylation of histones H3 and H4” value ([2]; HDAC2-wild type cells (HCT-116, SW48, LoVo), 0.25 μM trichostatin A, listed as TSA) of the same molecule?
**A.** The value was “hyperacetylation is achieved”.

**Q.** And the “biochemical and cellular (antiproliferative and proapoptotic) effects of HDAC inhibitors” value ([3]; HDAC2-deficient cancer cells, general statement)?
**A.** The value was “resistant; also recorded: impairs”.

**Q.** What about the cell growth inhibition ([3]; HDAC2-deficient cells (RKO, Co115), TSA 0-1000 nM, 48 h) of the same molecule?
**A.** The cell growth inhibition was “remained highly resistant”.

**Q.** What about the cell growth inhibition ([3]; HDAC2-deficient cells (RKO, Co115), TSA 0-1000 nM, 48 h, listed as TSA) of the same molecule?
**A.** Its cell growth inhibition is “marked resistance; also recorded: enhanced resistance”.

**Q.** And the cell growth inhibition [3, 10]?
**A.** The cell growth inhibition was “only able to accomplish these effects in the HDAC2-proficient cell lines”.

**Q.** What about the cell growth inhibition [3, 11] of the same molecule?
**A.** Its cell growth inhibition is “induces”.

**Q.** What about the induction of apoptosis ([1]; HDAC2-mutant cells (RKO), TSA) of the same molecule?
**A.** Its induction of apoptosis is “remained highly resistant”.

**Q.** And the induction of apoptosis ([1]; HDAC2-mutant cells (RKO), TSA, listed as TSA)?
**A.** The induction of apoptosis was “marked resistance”.

**Q.** What about the induction of apoptosis [1, 10] of the same molecule?
**A.** Its induction of apoptosis is “only able to accomplish these effects in the HDAC2-proficient cell lines”.

**Q.** And the induction of apoptosis [1, 11]?
**A.** The induction of apoptosis was “induces”.

**Q.** What about the “G2/M cell cycle arrest” value ([4]; HDAC2-mutant cells (RKO)) of the same molecule?
**A.** The value was “remained highly resistant”.

**Q.** What about the “G2/M cell cycle arrest” value ([4]; HDAC2-mutant cells (RKO), listed as TSA) of the same molecule?
**A.** The value was “marked resistance”.

**Q.** What about the “G2/M cell cycle arrest” value ([4]; HDAC2-proficient cell lines) of the same molecule?
**A.** The value was “only able to accomplish these effects in the HDAC2-proficient cell lines”.

**Q.** And the “G2/M cell cycle arrest” value ([4]; HDAC2-proficient cell lines, listed as TSA)?
**A.** The value was “induces”.

**Q.** And the tumor shrinkage ([5]; HDAC2-mutant RKO and Co115 xenografts in nude mice)?
**A.** The tumor shrinkage was “remained highly resistant”.

**Q.** And the tumor shrinkage ([5]; HDAC2-mutant RKO and Co115 xenografts in nude mice, listed as TSA)?
**A.** The tumor shrinkage was “remained resistant”.

**Q.** And the tumor shrinkage ([5]; HDAC2-proficient HCT-116 xenografts in nude mice)?
**A.** Its tumor shrinkage is “only able to accomplish these effects in the HDAC2-proficient cell line (HCT-116)”.

**Q.** And the “histone H4 acetylation mediated by TSA (HPCE)” value (“histone H4 acetylation mediated” for short) [6]?
**A.** The value was “more sensitive”.

**Q.** What about the “histone H4 acetylation mediated” value ([6]; listed as TSA) of the same molecule?
**A.** Its value is “show resistance to histone acetylation”.

**Q.** And the “histone H4 acetylation mediated” value [7]?
**A.** The value was “resistant to histone acetylation; also recorded: resistance”.

**Q.** What does the source list for `CCCC(CCC)C(=O)[O-].[Na+]` [valproate, sodium valproate]?
**A.** hyperacetylation of histones H3 and H4 [2, 8]: induce hyperacetylation in all cells; also recorded: able to induce hyperacetylation; inhibition of proliferation [3]: significantly inhibited proliferation; induction of apoptosis [1, 9]: induced apoptosis; blockage of the cell cycle at G2/M [4]: able to induce blockage of the cell cycle at G2/M
